Laboratory results from ChEMBL document CHEMBL3733935, “Pyrazolylbenzothiazole derivatives and their use as therapeutic agents” (2013).
Calls of active or inactive are those of the source.

How the values were obtained:
Assay type in all cases: functional, cell-based
Mus musculus [1] = species: Mus musculus; experiment: Cytoprotective activity against PAN-induced toxicity in mouse K5P5 cells assessed as increase in cell size at 2.5 to 25 uM after 48 to 72 hrs by crystal violet staining assay
Mus musculus [2] = species: Mus musculus; experiment: Cytoprotective activity against PAN-induced toxicity in mouse K5P5 cells assessed as increase in overall cell number at 2.5 to 25 uM after 48 to 72 hrs by crystal violet staining assay
Mus musculus [3] = species: Mus musculus; experiment: Cytoprotective activity against PAN-induced toxicity in mouse K5P5 cells assessed as increase in cell spreading at 2.5 to 25 uM after 48 to 72 hrs by crystal violet staining assay

Measured: Activity

Cc1[nH]nc(N)c1-c1nc2cc(F)c(S(=O)(=O)NCCO)cc2s1
active: all assays above

Cc1[nH]nc(N)c1-c1nc2cc(F)c(S(N)(=O)=O)cc2s1
active: all assays above

COc1cc2sc(-c3c(-c4ccco4)n[nH]c3N)nc2cc1F
active: all assays above

CNS(=O)(=O)c1ccc2nc(-c3c(N)n[nH]c3C)sc2c1
active: all assays above

Cc1[nH]nc(N)c1-c1nc2ccc(CN(C)C)cc2s1
active: all assays above
